Reference: patent US7592347B2, “Piperazine derivates and their use for the treatment of neurological and psychiatric diseases” (Glaxo Group Limited, priority 2003, dated 2009)
Where a name gives a salt, the structure may show the parent alone.

Each compound was assayed against T1, histamine H3 receptor (Homo sapiens, UniProt Q9Y5N1) (assay: Histamine H3 functional antagonist assay ([35S]GTPγS SPA, membranes of CHO K1 cells expressing human H3)). Settings: functional antagonism of histamine (0.3 μM) stimulated [35S]GTPγS binding, membranes of CHO K1 cells with human histamine H3.
T1 construct: expressed in transfected cells; host or cells: CHO K1 cells carrying pSwitch, transfected with pGeneH3 and induced with mifepristone; clone 3H3; membranes
T1 sequence (Q9Y5N1 whole entry): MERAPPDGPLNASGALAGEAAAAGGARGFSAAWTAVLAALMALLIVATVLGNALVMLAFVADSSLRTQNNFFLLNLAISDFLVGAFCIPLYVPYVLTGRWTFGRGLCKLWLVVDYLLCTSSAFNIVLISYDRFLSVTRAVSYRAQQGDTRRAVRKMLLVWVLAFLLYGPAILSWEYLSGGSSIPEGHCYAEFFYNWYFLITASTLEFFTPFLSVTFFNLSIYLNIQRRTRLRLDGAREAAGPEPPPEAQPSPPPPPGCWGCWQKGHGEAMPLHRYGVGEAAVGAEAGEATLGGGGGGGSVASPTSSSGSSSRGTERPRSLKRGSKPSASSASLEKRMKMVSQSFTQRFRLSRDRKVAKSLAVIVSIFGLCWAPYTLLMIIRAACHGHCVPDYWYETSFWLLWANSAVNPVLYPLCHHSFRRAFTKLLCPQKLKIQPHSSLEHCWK
Assay type: biochemical
Experimental: A membrane preparation containing histamine H3 receptors may be prepared in accordance with the following procedures:
Ligated DNA was transformed into competent DH5α E. coli host bacterial cells and plated onto Luria Broth (LB) agar containing Zeocin™ (an antibiotic which allows the selection of cells expressing the sh ble gene which is present on pGene and pSwitch) at 50 μg ml^−1. Colonies containing the re-ligated plasmid were identified by restriction analysis. DNA for transfection into mammalian cells was prepared from 250 ml cultures of the host bacterium containing the pGeneH3 plasmid and isolated using a DNA preparation kit (Qiagen Midi-Prep) as per manufacturers guidelines (Qiagen).
CHO K1 cells previously transfected with the pSwitch regulatory plasmid (InVitrogen) were seeded at 2×10e6 cells per T75 flask in Complete Medium, containing Hams F12 (GIBCOBRL, Life Technologies) medium supplemented with 10% v/v dialysed foetal bovine serum, L-glutamine, and hygromycin (100 μg ml^−1), 24 hours prior to use. Plasmid DNA was transfected into the cells using Lipofectamine plus according to the manufacturers guidelines (InVitrogen). 48 hours post transfection cells were placed into complete medium supplemented with 500 μg ml^−1 Zeocin™.
10-14 days post selection 10 nM Mifepristone (InVitrogen), was added to the culture medium to induce the expression of the receptor. […] Approximately 1×10e7 cells were examined for receptor expression by staining with a rabbit polyclonal antibody, 4a, raised against the N-terminal domain of the histamine H3 receptor, incubated on ice for 60 minutes, followed by two washes in sorting medium. […] Following two further washes with Sorting Medium, cells were filtered through a 50 μm Filcon™ (BD Biosciences) and then analysed on a FACS Vantage SE Flow Cytometer fitted with an Automatic Cell Deposition Unit. […] Positively stained cells were sorted as single cells into 96-well plates, containing Complete Medium containing 500 μg ml^−1 Zeocin™ and allowed to expand before reanalysis for receptor expression via antibody and ligand binding studies.
All steps of the protocol are carried out at 4° C. and with pre-cooled reagents. The cell pellet is resuspended in 10 volumes of buffer A2 containing 50 mM N-2-hydroxyethylpiperazine-N′-2-ethanesulfonic acid (HEPES)(pH 7.40) supplemented with 10e−4M leupeptin (acetyl-leucyl-leucyl-arginal; Sigma L2884), 25 μg/ml bacitracin (Sigma B0125), 1 mM ethylenediamine tetra-acetic acid (EDTA), 1 mM phenylmethylsulfonyl fluoride (PMSF) and 2×10e−6M pepstain A (Sigma). The cells are then homogenised by 2×15 second bursts in a 1 litre glass Waring blender, followed by centrifugation at 500 g for 20 minutes. The supernatant is then spun at 48,000 g.for 30 minutes. The pellet is resuspended in 4 volumes of buffer A2 by vortexing for 5 seconds, followed by homogenisation in a Dounce homogeniser (10-15 strokes). At this point the preparation is aliquoted into polypropylene tubes and stored at −70° C. […]
The plate is then incubated on a shaker at room temperature for 30 minutes followed by centrifugation for 5 minutes at 1500 rpm. The plate is read between 3 and 6 hours after completion of centrifuge run in a Wallac Microbeta counter on a 1 minute normalised tritium count protocol. Data is analysed using a 4-parameter logistic equation. Basal activity used as minimum i.e. histamine not added to well.
In the case of `CC(C)N1CCN(C(=O)C2CCN(c3ccc(C#N)cn3)CC2)CC1` [Example E1, 1-Isopropyl-4-[1-(5-cyano-pyridin-2-yl)-piperidine4-carbonyl]-piperazine hydrochloride], the Kb is reported as < 3.16 nM.
In the case of `CC(C)N1CCN(C(=O)C2CCN(c3ccc(C#N)cc3)CC2)CC1` [Example E2, 1-Isopropyl-4-[1-(4-cyanophenyl)-piperidine-4-carbonyl]-piperazine hydrochloride], the Kb is reported as < 1 nM.
With `COC(=O)c1cnc(N2CCC(C(=O)N3CCN(C(C)C)CC3)CC2)cc1C(F)(F)F` [Example E4, 1-Isopropyl-4-[1-(5-methoxycarbonyl-4-trifluoromethylpyridin-2-yl)-piperidine-4-carbonyl]-piperazine] the Kb was < 3.16 nM.
With `CCOC(=O)c1ccc(N2CCC(C(=O)N3CCN(C(C)C)CC3)CC2)cc1` [Example E8, 1-Isopropyl-4-[1-(4ethoxycarbonylphenyl)-piperidine-4-carbonyl]-piperazine] the Kb was < 3.16 nM.
`N#Cc1ccc(N2CCC(C(=O)N3CCN(C4CCC4)CC3)CC2)cc1` [Example E9, 1-Cyclobutyl-4-[1-(4-cyanophenyl)-piperidine-4-carbonyl]-piperazine] was tested, and the Kb was < 3.16 nM.
In the case of `N#Cc1ccc(N2CCC(C(=O)N3CCN(C4CCC4)CC3)CC2)cc1F` [Example E10, 1-Cyclobutyl-4-[1-(4-cyano-3-fluorophenyl)-piperidine-4-carbonyl]-piperazine], the Kb is reported as < 3.16 nM.
`N#Cc1cc(F)c(N2CCC(C(=O)N3CCN(C4CCC4)CC3)CC2)c(F)c1` [Example E11, 1-Cyclobutyl4-[1-(4-cyano-2,6-difluorophenyl)-piperidine-4-carbonyl]-piperazine] was tested, and the Kb was < 3.16 nM.
With `N#Cc1ccc(N2CCC(C(=O)N3CCN(C4CCC4)CC3)CC2)cc1C(F)(F)F` [Example E12, 1-Cyclobutyl-4-[1-(4-cyano-3-trifluoromethylphenyl)-piperidine-4-carbonyl]-piperazine] the Kb was < 3.16 nM.
In the case of `N#Cc1ccc(N2CCC(C(=O)N3CCN(C4CCC4)CC3)CC2)c2ccccc12` [Example E13, 1-Cyclobutyl-4-[1-(4-cyano-naphthalen-1-yl)-piperidine-4-carbonyl]-piperazine], the Kb is reported as < 3.16 nM.
For `N#Cc1ccc(N2CCC(C(=O)N3CCN(C4CCC4)CC3)CC2)nc1` [Example E14, 1-Cyclobutyl-4-[1-(5-cyanopyridin-2-yl)-piperidine-4-carbonyl]-piperazine], the Kb was < 3.16 nM.
`O=C(C1CCN(c2cccc(C(F)(F)F)n2)CC1)N1CCN(C2CCC2)CC1` [Example E15, 1-Cyclobutyl-4-[1-(6-trifluoromethylpyridin-2-yl)-piperidine-4-carbonyl]-piperazine] was tested, and the Kb was < 3.16 nM.
In the case of `O=C(C1CCN(c2ccc(C(F)(F)F)cn2)CC1)N1CCN(C2CCC2)CC1` [Example E16, 1-Cyclobutyl-4-[1-(5-trifluoromethylpyridin-2-yl)-piperidine-4-carbonyl]-piperazine], the Kb is reported as < 3.16 nM.
With `O=C(C1CCN(c2ncc(C(F)(F)F)cc2Cl)CC1)N1CCN(C2CCC2)CC1` [Example E17, 1-Cyclobutyl-4-[1-(3-chloro-5-trifluoromethylpyridin-2-yl)-piperidine-4-carbonyl]-piperazine] the Kb was < 3.16 nM.
`CC(C)N1CCN(C(=O)C2CCN(c3ncc(-c4ccc(S(C)(=O)=O)cc4)cn3)CC2)CC1` [Example E25, 1-Isopropyl-4-{1-[5-(4-methylsulfonylphenyl)-pyrimidin-2-yl]-piperidine-4-carbonyl}-piperazine] was tested, and the Kb was < 3.16 nM.
In the case of `CC(C)N1CCN(C(=O)C2CCN(c3ccc(C(=O)N4CCOCC4)cc3)CC2)CC1` [Example E30, 1-Isopropyl-4-{1-[4-(morpholino-carbonyl)-phenyl]-piperidine-4-carbonyl}-piperazine hydrochloride], the Kb is reported as < 3.16 nM.
With `N#Cc1ccc(N2CCC(C(=O)N3CCN(C4CCCC4)CC3)CC2)cc1` [Example E31, 1-Cyclopentyl-4-[1-(4cyano-phenyl)-piperidine-4-carbonyl]-piperazine hydrochloride] the Kb was < 3.16 nM.
`C[C@@H]1CN(C(=O)C2CCN(c3ccc(C#N)cc3)CC2)C[C@H](C)N1C1CCC1` [Example E33, (2R,6S)-1-Cyclobutyl-4-[1-(4-cyanophenyl)-piperidine-4-carbonyl]-2,6-dimethylpiperazine hydrochloride] was tested, and the Kb was < 3.16 nM.
`N#Cc1ccc(N2CCC(C(=O)N3CCCN(C4CCC4)CC3)CC2)cc1` [Example E36, 1-Cyclobutyl-4-[1-(4-cyanophenyl)-piperidine4-carbonyl]-[1,4]-diazepane] was tested, and the Kb was < 1 nM.
With `N#Cc1ccc(N2CCC(C(=O)N3CCCN(C4CCC4)CC3)CC2)nc1` [Example E37, 1-Cyclobutyl-4-[1-(5-cyanopyridin-2-yl)-piperidine4-carbonyl]-[1,4]-diazepane] the Kb was < 1 nM.
With `CC(C)N1CCCN(C(=O)C2CCN(c3ccc(C#N)cc3)CC2)CC1` [Example E38, 1-Isopropyl-4-[1-(4-cyanophenyl)-piperidine4-carbonyl]-[1,4]-diazepane] the Kb was < 1 nM.
In the case of `CC(C)N1CCCN(C(=O)C2CCN(c3cc(F)c(C#N)cc3F)CC2)CC1` [Example E39, 1-Isopropyl-4-[1-(4-cyano-2,5-difluorophenyl)-piperidine-4-carbonyl]-[1,4]-diazepane], the Kb is reported as < 3.16 nM.
`CC(C)N1CCCN(C(=O)C2CCN(c3ccc(C#N)c(Cl)c3)CC2)CC1` [Example E40, 1-Isopropyl-4-[1-(4-cyano-3-chlorophenyl)-piperidine-4-carbonyl]-[1,4]-diazepane] was tested, and the Kb was < 3.16 nM.
In the case of `CC(C)N1CCCN(C(=O)C2CCN(c3ccc(C#N)c(F)c3)CC2)CC1` [Example E41, 1-Isopropyl-4-[1-(4-cyano-3-fluoro-phenyl)-piperidine4-carbonyl]-[1,4]-diazepane], the Kb is reported as < 3.16 nM.
With `CC(C)N1CCCN(C(=O)C2CCN(c3c(F)cc(C#N)cc3F)CC2)CC1` [Example E42, 1-Isopropyl-4-[1-(4-cyano-2,6-difluoro-phenyl)-piperidine-4-carbonyl]-[1,4]-diazepane] the Kb was < 3.16 nM.
`CC(C)N1CCCN(C(=O)C2CCN(c3ccc(C#N)cc3F)CC2)CC1` [Example E43, 1-Isopropyl-4-[1-(4-cyano-2-fluoro-phenyl)-piperidine-4-carbonyl]-[1,4]-diazepane] was tested, and the Kb was < 3.16 nM.
With `CC(C)N1CCCN(C(=O)C2CCN(c3ccc(C#N)c(C(F)(F)F)c3)CC2)CC1` [Example E44, 1-Isopropyl4-[1-(4-cyano-3-trifluoromethyl-phenyl)-piperidine-4-carbonyl]-[1,4]-diazepane] the Kb was < 3.16 nM.
In the case of `CC(C)N1CCCN(C(=O)C2CCN(c3ccc(C(F)(F)F)cc3)CC2)CC1` [Example E45, 1-Isopropyl-4-[1-(4-trifluoromethyl-phenyl)-piperidine-4-carbonyl]-[1,4]-diazepane], the Kb is reported as < 3.16 nM.
With `CC(C)N1CCCN(C(=O)C2CCN(c3ccc(C#N)c4ccccc34)CC2)CC1` [Example E46, 1-Isopropyl-4-[1-(4-cyano-naphthalen-1-yl)-piperidine-4-carbonyl]-[1,4]-diazepane] the Kb was < 3.16 nM.
In the case of `CC(C)N1CCCN(C(=O)C2CCN(c3ccc(Cl)c(Cl)c3)CC2)CC1` [Example E54, 1-Isopropyl-4-[1-(3,4-dichlorophenyl)-piperidine-4-carbonyl]-[1,4]-diazepane], the Kb is reported as < 3.16 nM.
With `CC(C)N1CCCN(C(=O)C2CCN(c3ccc(OC(F)(F)F)cc3)CC2)CC1` [Example E56, 1-Isopropyl-4-[1-(4-trifluoromethoxyphenyl)-piperidine4-carbonyl]-[1,4]-diazepane] the Kb was < 3.16 nM.
